Measurements taken from patent US7338809B2, “Method for assaying whole blood” (Mitsubishi Kagaku Iatron, Inc., priority 2001, dated 2008).
Entries after “also recorded” stand apart in the source; their conditions may differ.

Tests used:
whole blood [1] = experiment: Example 3: visual inspection of reaction system with whole blood treatment solutions (hemolysis, adhesion and aggregation of magnetic particles)
Protocol: Examination was conducted on the assumption that a detergent was added to the reaction system by adding the detergent to a whole blood treatment solution beforehand. The whole blood treatment solutions were prepared by dissolving various detergents in 0.1 M Tris buffer (pH 8.0) containing 1% BSA and 0.15 M NaCl, and it was examined which detergent was suitable for the measurement method of the present invention.
Blood was collected by using an EDTA blood collection tube. Then, HBsAg was added at 1 U/ml to each of the whole blood stored at 4° C. for 3 days and plasma obtained from the whole blood by centrifugation, and a recovery test for HBsAg was performed using the luminescence intensity obtained in the measurement using plasma, which was taken as 100%.
The assay was performed in the same manner as in Example 2. Whole blood and each of the various whole blood treatment solutions were mixed at a ratio of 9:1, plasma was mixed with purified water at a ratio of 9:1, and HBsAg was immediately measured. Further, whole blood was mixed with the aforementioned buffer (0.1 M Tris buffer (pH 8.0) containing 1% BSA and 0.15 M NaCl) without adding a detergent instead of a whole blood treatment solution, and HBsAg was measured in the same manner. Presence or absence of hemolysis in the reaction system, non-specific adhesion of magnetic particles on the reaction vessel (made of polypropylene) and non-specific aggregation of magnetic particles during reaction were confirmed by visual inspection.

whole blood [2] = experiment: Example 4: visual inspection of reaction system, types and concentrations of detergents (hemolysis, adhesion, aggregation); conditions: heparin whole blood stored overnight at 4° C.
Protocol: Blood was collected by using a blood collection tube treated with heparin as an anticoagulant. […] Each detergent was added at a concentration of 0.01, 0.1, 0.5, 1 and 10% as a final concentration after the mixing with whole blood. Presence or absence of hemolysis in the reaction system, non-specific adhesion of magnetic particles on the reaction vessel (made of polypropylene) and non-specific aggregation of magnetic particles during reaction were confirmed by visual inspection for each detergent in each reaction system, and recovery ratio with respect to the added amount was determined.

whole blood [3] = experiment: Example 5: visual inspection of reaction system using fresh whole blood (hemolysis, adhesion, aggregation)
Protocol: In emergent tests, in particular, it is desirable to perform an assay immediately after blood collection, and erythrocytes in whole blood may be gradually hemolyzed during storage, possibly affecting the measurement. Therefore, examination was performed by using fresh blood immediately after blood collection.

[4] = detergent 1% upon mixing of whole blood, EDTA whole blood stored at 4° C. for 3 days, visual inspection

Saponin was tested, and the Hemolysis (whole blood [1]) was “Present”.

“Polyoxyethylene octyl phenyl ether [Triton X-100]” was tested, and the Hemolysis (whole blood [1]; [4]) was “Present”, the Hemolysis (whole blood [2]; detergent 0.01% upon mixing of whole blood) was “Absent” and the Hemolysis (whole blood [2]; detergent 0.1% upon mixing of whole blood) was “Absent”. For the same molecule, the Hemolysis (whole blood [2]; detergent 0.5% upon mixing of whole blood) was “hemolysis was observed; also recorded: Present”, the Hemolysis (whole blood [2]; detergent 1% upon mixing of whole blood) was “Present” and the Hemolysis (whole blood [2]; detergent 10% upon mixing of whole blood) was “Present”.

For `C[C@H](CCC(=O)NCCC[N+](C)(C)CCCS(=O)(=O)[O-])[C@H]1CC[C@H]2[C@@H]3[C@H](O)C[C@@H]4C[C@H](O)CC[C@]4(C)[C@H]3C[C@H](O)[C@]12C` [CHAPS, 3-{(3-Cholamidopropyl)dimethylammonio}-1-propanesulfonate], the Hemolysis (whole blood [1]; [4]) was “Present”.

In the case of `O=S(=O)([O-])CCC[n+]1ccccc1`, the Hemolysis (whole blood [1]) is reported as “Absent” and the Hemolysis (whole blood [3]) is reported as “Absent”.

For Polyoxyethylene stearyl ether [Brij 78], the Hemolysis (whole blood [1]; [4]) was “Present”.
